Experimental data reported in US9732119B2, “Immunomodulators” (BRISTOL-MYERS SQUIBB COMPANY, priority 2014, dated 2017).
Non-standard residues stand in square brackets, D forms with d. Residues, ends and D or L forms follow the SMILES beside them. Trp(1-CH2COOH) = N[C@@H](Cc1cn(CC(=O)O)c2ccccc12)C(=O)O; Hyp = O=C(O)[C@@H]1C[C@@H](O)CN1; NMeNle = CCCC[C@H](NC)C(=O)O; NMeA = CN[C@@H](C)C(=O)O; Ava = NCCCCC(=O)O

Target: T1, PD-1-Ig binding to PD-L1-TVMV-His (PD-L1-His) (Homo sapiens, UniProt Q9NZQ7)
T1 construct: hPDL1(19-239)-TVMV-His; made in house; host or cells: HEK293T cells
T1 sequence (Q9NZQ7 with tags, fused parts or gaps): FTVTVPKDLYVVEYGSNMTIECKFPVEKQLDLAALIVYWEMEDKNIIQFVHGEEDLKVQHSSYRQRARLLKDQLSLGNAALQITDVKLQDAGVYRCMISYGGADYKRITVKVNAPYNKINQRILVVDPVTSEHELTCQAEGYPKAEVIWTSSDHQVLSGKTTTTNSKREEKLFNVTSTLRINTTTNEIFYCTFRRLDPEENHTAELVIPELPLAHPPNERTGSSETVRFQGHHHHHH
Experiment: PD-1/PD-L1 Homogenous Time-Resolved Fluorescence (HTRF) binding assay
Settings: PD-1-Ig (20 nM) / PD-L1-His (10 nM)
Method in brief: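 HTRF competition: compound pre-incubated 15 min with PD-L1-His (10 nM final), then PD-1-Ig (20 nM final) added for 15 min in dPBS, 0.1% BSA, 0.05% Tween-20. Detection with Eu-cryptate anti-Ig (1 nM) and APC anti-His (20 nM) antibodies.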

Row | IC50 (range classes) | IC50 (numeric values) | Structure (SMILES)
1 | 1 to 9.9 nM |  | CCCC[C@H]1C(=O)N(C)[C@@H](CCCC)C(=O)N[C@@H](CC(C)C)C(=O)N[C@H](C(=O)NCC(N)=O)CNCC(=O)N[C@@H](Cc2ccc(O)cc2)C(=O)N(C)[C@@H](C)C(=O)N[C@@H](CC(N)=O)C(=O)N2CCC[C@H]2C(=O)N[C@@H](Cc2cnc[nH]2)C(=O)N[C@@H](CCC(N)=O)C(=O)N2C[C@H](O)C[C@H]2C(=O)N[C@@H](Cc2c[nH]c3ccccc23)C(=O)N[C@@H](CO)C(=O)N[C@@H](Cc2c[nH]c3ccccc23)C(=O)N1C [Example 10004]
2 | 1 to 9.9 nM |  | CCCC[C@H]1C(=O)N(C)[C@@H](CCCC)C(=O)N[C@@H](CC(C)C)C(=O)N[C@H](C(N)=O)CNCC(=O)N[C@@H](Cc2ccc(F)cc2)C(=O)N2CCCC[C@H]2C(=O)N[C@@H](CC(N)=O)C(=O)N2CCCC2C(=O)N[C@@H](Cc2c[nH]cn2)C(=O)N[C@@H](CCC(N)=O)C(=O)N2C[C@H](O)C[C@H]2C(=O)N[C@@H](Cc2c[nH]c3ccccc23)C(=O)N[C@@H](C)C(=O)N[C@@H](Cc2cn(CC(=O)O)c3ccccc23)C(=O)N1C (stereo partly shown) [Example 9053]
3 | 1 to 9.9 nM |  | CCCC[C@H]1C(=O)N(C)[C@@H](CCCC)C(=O)N[C@@H](CC(C)C)C(=O)N[C@H](C(N)=O)CNCC(=O)N[C@@H](Cc2ccc(F)cc2)C(=O)N2CCCC[C@H]2C(=O)N[C@@H](CC(N)=O)C(=O)N2CCC[C@H]2C(=O)N[C@@H](CCC(N)=O)C(=O)N[C@@H](CCC(=O)O)C(=O)N2C[C@H](O)C[C@H]2C(=O)N[C@@H](Cc2c[nH]c3ccccc23)C(=O)N[C@@H](CC(N)=O)C(=O)N[C@@H](Cc2cn(CC(=O)O)c3ccccc23)C(=O)N1C [Example 9032]
4 |  | 765 nM | CCCC[C@H]1C(=O)N(C)[C@@H](CCCC)C(=O)N[C@@H](CC(C)C)C(=O)NCCCCC(=O)N[C@@H](Cc2ccc(O)cc2)C(=O)N(C)[C@@H](C)C(=O)N[C@@H](CC(=O)O)C(=O)N2CCC[C@H]2C(=O)N[C@@H](Cc2c[nH]cn2)C(=O)N[C@@H](CCCCN)C(=O)N2C[C@H](O)C[C@H]2C(=O)N[C@@H](Cc2c[nH]c3ccccc23)C(=O)N[C@@H](CCCCN)C(=O)N[C@@H](Cc2cn(CC(=O)O)c3ccccc23)C(=O)N1C [Example 10509] (cyclo([Ava]Y[NMeA]DPHK[Hyp]WK[Trp(1-CH2COOH)][NMeNle][NMeNle]L))
